# Reference: patent publication US12090155B2, “Methods” (INTRA-CELLULAR THERAPIES, INC., priority 2019, dated 2024)
# Entries after “also recorded” stand apart in the source; their conditions may differ.
# What was measured:
# [1] = test system: patients with Bipolar I or Bipolar II disorder experiencing a major depressive episode; assay: Phase 3 placebo-controlled clinical trial, safety and tolerability; type: in vivo, human
# Protocol: (§1) A multi-center, multi-national, randomized, double-blind, fixed-dose, placebo-controlled clinical trial is conducted substantially in accordance with the following protocol.
# (§2) Patients are recruited according to the following criteria: • Major Inclusion Criteria: Male or female subjects of any race, ages 18-75 inclusive, with a clinical diagnosis of Bipolar I or Bipolar II disorder, experiencing a current major depressive episode, and able to provide written informed consent. • Major Exclusion Criteria: Any female subject who is pregnant or breast-feeding, and any subject judged to be medically inappropriate for study participation.
# (§3) In the placebo arm, placebo is administered once daily every evening for 6 weeks. […] The study is quadruple-masked (i.e., to participant, care provider, investigator, and outcomes assessor).
# (§4) The total study duration is about 10 weeks, including up to 2 weeks screening period (washout of prohibited medications), a 6-week double-blind treatment period, and 2-week safety follow-up period.
# Incidence of Adverse Events (AEs) • b. Young Mania Rating Scale (YMRS) • c. Columbia Suicide Severity Rating Scale (C-SSRS) • d. Abnormal Involuntary Movement Scale (AIMS) • e. Barnes Akathisia Rating Scale (BARS) • f. Simpson Angus Scale (SAS) • g. Clinical laboratory evaluations • h. Electrocardiograms (ECGs) • i. Vital sign measurements • j. Physical examination and neurological findings
# [2] = test system: patients with Bipolar I or Bipolar II disorder experiencing a major depressive episode; assay: Phase 3 placebo-controlled clinical trial, efficacy (MADRS, CGI-BP-S); type: in vivo, human
# Protocol: as §1, §2, §3, §4
# The primary outcome measure is the Montgomery-Åsberg Depression Rating Scale (MADRS) [Time Frame: Day 43]. Secondary outcome measures are the Clinical Global Impression Scale, Bipolar version (CGI-BP) [Time Frame: Day 43] and the Quality of Life Enjoyment and Satisfaction Questionnaire-Short Form (Q-LES-Q-SF) [Time Frame: Day 43].
# [3] = 42 mg once daily orally for 6 weeks, Day 43, ITT
# [4] = 42 mg once daily orally for 6 weeks, Day 43, listed as lumateperone
# [5] = 42 mg once daily orally for 6 weeks, change from baseline to Day 43, ITT
# [6] = 42 mg once daily, week 6, ITT population
smiles,measurement,setting,value
"CN1CCN2c3c(cccc31)[C@@H]1CN(CCCC(=O)c3ccc(F)cc3)CC[C@@H]12 [Lumateperone, 4-((6bR,10aS)-3-methyl-2,3,6b,9,10,10a-hexahydro-1H-pyrido[3′,4′: 4,5]pyrrolo[1,2,3-de]quinoxalin-8(7H)-yl)-1-(4-fluorophenyl)-1-butanone]",Emergence of mania as measured by the Young Mania Rating Scale (YMRS) and clinical global impression of severity for mania,[1]; 42 mg daily,did not exhibit emergence of mania
same,"Extrapyramidal symptoms, akathisia, restlessness or other motor side effects (adverse event reports)",[1]; 42 mg daily,"does not increase akathisia, restlessness, or other movement disorders; also recorded: no adverse event reports of extrapyramidal symptoms"
same,"Metabolic effects (hyperglycemia, dyslipidemia, weight gain)",[1]; 42 mg daily,does not have significant metabolic side effects; also recorded: did not appear to have any noticeable metabolic effects
same,Overall safety profile / tolerability,[1]; 42 mg daily,"favorable safety profile in this trial, comparable to placebo; also recorded: generally safe and well tolerated"
same,"Rate of the most commonly reported adverse events (headache, somnolence and nausea), higher than placebo",[1]; 42 mg daily,greater than 5%
same,Rates of akathisia and extrapyramidal symptoms,[1]; 42 mg daily,less than 1%
same,Suicidal ideation (adverse event reports),[1]; 42 mg daily,does not increase suicidal ideation; also recorded: no adverse event reports of suicidal ideation
same,Number of patients with drug-related TEAE,"[1]; 42 mg, N = 188",78 (41.5) n (%)
same,Number of patients with drug-related treatment-emergent SAE,"[1]; 42 mg, N = 188",0 n (%)
same,Number of patients with treatment-emergent SAE,"[1]; 42 mg, N = 188",1 (0.5) n (%)
same,Number of patients with treatment-emergent death,"[1]; 42 mg, N = 188",0 n (%)
same,Subjects discontinued study due to TEAE,"[1]; 42 mg, N = 188",11 (5.9) n (%)
same,Subjects discontinued study due to drug-related TEAE,"[1]; 42 mg, N = 188",9 (4.8) n (%)
same,Subjects discontinued study due to drug-related treatment-emergent SAE,"[1]; 42 mg, N = 188",0 n (%)
same,Subjects discontinued study due to treatment-emergent SAE,"[1]; 42 mg, N = 188",1 (0.5) n (%)
same,Subjects who died,"[1]; 42 mg, N = 188",0 n (%)
same,Number of patients with one or more TEAE,"[1]; 42 mg, N = 188, safety population",103 (54.8) n (%)
same,"MADRS total score versus placebo, subgroup of patients with Bipolar II disorder","[2]; 42 mg daily, subgroup analysis, Bipolar II disorder",statistically significant superior versus placebo; also recorded: statistically significant superior to placebo
same,Responder rates and remission rates versus placebo,[2]; 42 mg once daily,statistically significant benefits
same,Time of first statistically significant separation from placebo on MADRS total score,[2]; 42 mg once daily,as early as week 1
same,"MADRS total score, Effect Size, comparison to placebo at Day 43","[2]; 42 mg once daily orally for 6 weeks, Day 43",−0.56
same,"CGI-BP-S total score, LSMD (SE), comparison to placebo at Day 43",[2]; [3],−0.9 (0.22)
same,"MADRS total score, LSMD (SE), comparison to placebo at Day 43",[2]; [3],-4.6
same,"CGI-BP-S total score, Effect Size, comparison to placebo at Day 43",[2]; [4],0.46
same,"MADRS total score, Effect Size, comparison to placebo at Day 43",[2]; [4],0.56
same,"CGI-BP-S total score, LS Mean (SE) Change at Day 43",[2]; [5],−3.5 (0.17)
same,"MADRS total score, LS Mean (SE) Change at Day 43",[2]; [5],−16.7 (0.69)
same,"CGI-S Depression Score, effect size versus placebo","[2]; 42 mg once daily, 6 weeks",0.5
same,"MADRS total score, LS mean difference versus placebo",[2]; [6],4.6 points
same,"MADRS total score, least squares (LS) mean reduction from baseline",[2]; [6],16.7 points
